Measured values from ChEMBL document CHEMBL1146408, “Makaluvamine N: a new pyrroloiminoquinone from Zyzzya fuliginosa” (1997).

Target: DNA topoisomerase 2-alpha (Homo sapiens) (UniProt P11388)
Assay: Inhibition of human topoisomerase 2alpha-mediated supercoiled pBR322 DNA relaxation at 5 ug/ml by agarose gel electrophoresis

DNA topoisomerase 2-alpha (Homo sapiens), sequence (P11388 whole entry): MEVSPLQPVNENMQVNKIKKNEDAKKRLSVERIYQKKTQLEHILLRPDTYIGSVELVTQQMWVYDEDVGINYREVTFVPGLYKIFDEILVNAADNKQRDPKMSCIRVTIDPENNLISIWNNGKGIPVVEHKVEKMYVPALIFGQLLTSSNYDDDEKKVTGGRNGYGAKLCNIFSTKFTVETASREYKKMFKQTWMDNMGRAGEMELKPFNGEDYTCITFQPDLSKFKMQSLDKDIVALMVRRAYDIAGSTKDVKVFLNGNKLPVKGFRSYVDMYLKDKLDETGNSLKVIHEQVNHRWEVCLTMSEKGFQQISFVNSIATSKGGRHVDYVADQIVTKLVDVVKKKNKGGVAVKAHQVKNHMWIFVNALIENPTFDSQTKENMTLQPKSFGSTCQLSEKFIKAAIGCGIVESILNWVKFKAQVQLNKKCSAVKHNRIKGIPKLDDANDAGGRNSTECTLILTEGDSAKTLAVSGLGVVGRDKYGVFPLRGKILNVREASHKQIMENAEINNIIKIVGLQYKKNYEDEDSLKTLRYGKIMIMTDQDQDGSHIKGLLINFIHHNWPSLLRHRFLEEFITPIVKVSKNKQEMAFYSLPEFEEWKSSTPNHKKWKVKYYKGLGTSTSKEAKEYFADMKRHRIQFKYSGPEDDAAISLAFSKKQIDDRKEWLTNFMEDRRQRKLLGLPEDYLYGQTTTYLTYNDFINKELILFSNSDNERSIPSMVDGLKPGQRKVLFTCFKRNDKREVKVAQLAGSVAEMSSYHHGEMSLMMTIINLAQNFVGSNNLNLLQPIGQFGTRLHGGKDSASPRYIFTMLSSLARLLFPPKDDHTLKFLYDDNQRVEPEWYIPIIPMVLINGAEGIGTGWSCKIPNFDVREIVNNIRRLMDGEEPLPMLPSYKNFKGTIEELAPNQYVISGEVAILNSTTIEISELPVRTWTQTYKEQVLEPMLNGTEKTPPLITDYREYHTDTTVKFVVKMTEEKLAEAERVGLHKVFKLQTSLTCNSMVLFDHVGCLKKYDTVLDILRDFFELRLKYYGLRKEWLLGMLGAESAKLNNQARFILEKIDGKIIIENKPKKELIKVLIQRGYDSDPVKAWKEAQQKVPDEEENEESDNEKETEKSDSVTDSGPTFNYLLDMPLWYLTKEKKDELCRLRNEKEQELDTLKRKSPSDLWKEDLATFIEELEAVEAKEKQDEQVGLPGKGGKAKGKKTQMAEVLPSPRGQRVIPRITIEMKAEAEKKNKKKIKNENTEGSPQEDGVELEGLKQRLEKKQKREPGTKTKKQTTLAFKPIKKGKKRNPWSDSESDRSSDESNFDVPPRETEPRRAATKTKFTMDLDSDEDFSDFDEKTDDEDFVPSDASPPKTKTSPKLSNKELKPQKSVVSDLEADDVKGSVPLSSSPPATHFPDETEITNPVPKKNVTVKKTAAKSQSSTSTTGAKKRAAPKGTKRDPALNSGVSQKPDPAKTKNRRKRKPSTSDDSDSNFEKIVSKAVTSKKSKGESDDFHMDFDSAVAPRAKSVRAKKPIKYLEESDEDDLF

Work on `NC1=C(Br)C2=NCCc3c[nH]c(c32)C1=O` yielded an inhibition of 90%.
